Active and inactive are the calls of the source. No cut-off for these calls is given here.
Key:
[1] = target: T1, Falcipain 2 (Plasmodium falciparum) (UniProt Q9N6S8); test: Inhibition of N-terminal 6His-tagged recombinant Plasmodium falciparum FP2 expressed in Escherichia coli M15 using Z-Phe-Arg-AMC as substrate at 10 uM measured after 30 mins by microplate reader analysis relative to control
T1 sequence (whole entry): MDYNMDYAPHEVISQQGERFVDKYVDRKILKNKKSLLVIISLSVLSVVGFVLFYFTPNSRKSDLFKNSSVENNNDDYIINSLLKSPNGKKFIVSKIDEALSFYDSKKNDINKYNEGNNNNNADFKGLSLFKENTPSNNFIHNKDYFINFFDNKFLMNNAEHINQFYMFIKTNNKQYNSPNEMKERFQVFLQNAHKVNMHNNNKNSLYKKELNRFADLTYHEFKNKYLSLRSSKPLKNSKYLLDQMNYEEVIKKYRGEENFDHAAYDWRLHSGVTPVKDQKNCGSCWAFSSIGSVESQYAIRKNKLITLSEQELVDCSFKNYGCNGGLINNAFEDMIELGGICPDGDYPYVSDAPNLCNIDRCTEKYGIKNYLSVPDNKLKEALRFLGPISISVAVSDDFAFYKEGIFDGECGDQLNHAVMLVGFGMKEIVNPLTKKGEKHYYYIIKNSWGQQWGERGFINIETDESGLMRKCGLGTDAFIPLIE

[2] = Toxicity in mouse assessed as latency time to the central area at 100 mg/kg by open field test (reference value: 106.48 +/- 43.19 sec); format: organism-based; conditions: in vivo, 43 s
[3] = Stability of the compound in simulated gastric fluid at pH 1.2 at 1 uM measured after 120 mins by LC-MS/MS analysis; format: ADME; conditions: simulated gi fluid, pH 1.2, 2 h
[4] = target: T1, Falcipain 2 (Plasmodium falciparum); test: Binding affinity to N-terminal 6His-tagged recombinant Plasmodium falciparum FP2 expressed in Escherichia coli M15 assessed as dissociation rate constant (Koff) by surface plasmon resonance analysis
[5] = target: T2, Falcipain-3 (Plasmodium falciparum 3D7, UniProt Q8IIL0); test: Inhibition of N-terminal 6His-tagged recombinant Plasmodium falciparum FP3 expressed in Escherichia coli M15 using Z-Phe-Arg-AMC as substrate measured after 30 mins by microplate reader analysis
T2 sequence (Q8IIL0 whole entry): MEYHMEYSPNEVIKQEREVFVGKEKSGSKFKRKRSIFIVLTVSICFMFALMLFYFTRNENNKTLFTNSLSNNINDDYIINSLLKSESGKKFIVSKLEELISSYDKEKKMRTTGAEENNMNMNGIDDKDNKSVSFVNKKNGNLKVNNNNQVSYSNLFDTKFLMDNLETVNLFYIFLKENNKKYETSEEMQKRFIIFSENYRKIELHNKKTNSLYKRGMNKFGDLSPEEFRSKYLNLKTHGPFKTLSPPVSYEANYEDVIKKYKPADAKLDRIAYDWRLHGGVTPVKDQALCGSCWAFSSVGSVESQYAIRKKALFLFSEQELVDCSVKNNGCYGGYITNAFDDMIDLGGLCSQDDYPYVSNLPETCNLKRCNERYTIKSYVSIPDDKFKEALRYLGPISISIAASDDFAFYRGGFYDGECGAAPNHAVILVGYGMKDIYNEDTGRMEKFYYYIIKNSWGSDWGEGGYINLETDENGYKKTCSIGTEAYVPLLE

[6] = Stability of the compound in tris buffer at pH 7.4 at 1 uM measured after 120 mins by LC-MS/MS analysis; format: physicochemical; conditions: pH 7.4, 2 h
[7] = Toxicity in mouse assessed as frequency of rearing activity at 200 mg/kg measured over 5 mins by open field arena test (reference value: 18.14 +/- 2.6 sec); format: organism-based; conditions: in vivo
[8] = Toxicity in mouse assessed as cell apoptosis in kidney at 100 to 200 mg/kg measured after 7 days by hematoxylin and eosin staining based analysis; format: organism-based; conditions: in vivo, 168 h, dose 100-200 mg/kg, time 7 day
[9] = system: Plasmodium falciparum; test: Antimalarial activity against ring stage chloroquine-sensitive Plasmodium falciparum 3D7 assessed as growth inhibition incubated for 72 hrs by SYBR Green dye based analysis; format: functional, organism-based; conditions: 3D7, 72 h
[10] = system: Plasmodium falciparum; test: Antimalarial activity against synchronized ring stage Plasmodium falciparum assessed as reduction in hemozoin level at 1 to 4 uM incubated for 20 hrs by absorbance based analysis; format: functional, organism-based; conditions: dose 1-4 µM
[11] = system: Plasmodium falciparum; test: Antimalarial activity against ring stage chloroquine-sensitive Plasmodium falciparum 3D7 assessed as growth inhibition incubated with compound for 6 hrs and measured 72 hrs post invasion by SYBR Green dye based analysis; format: functional, organism-based
[12] = system: Plasmodium falciparum; test: Antimalarial activity against schizont stage Plasmodium falciparum infected in erythrocytes assessed as decrease in falcipain-mediated substrate hydrolysis by measuring reduction in fluorescence intensity of the fluorogenic peptide at 5 uM pre-incubated for 1 hr followed by Z-Phe-Arg-AMC substrate addition and measured after 5 to 10 mins by confocal microscopic analysis; format: functional, organism-based; conditions: Erythrocyte, time 65-70 min
[13] = system: Plasmodium falciparum; test: Antimalarial activity against synchronized-schizont stage chloroquine-sensitive Plasmodium falciparum 3D7 assessed as delay in progression measured upto 60 hrs by Giemsa staining based light microscopic analysis; format: functional, organism-based
[14] = target: T3, Falcipain-3 (Plasmodium falciparum 3D7) (UniProt Q8IIL0); test: Binding affinity to N-terminal 6His-tagged recombinant Plasmodium falciparum FP3 expressed in Escherichia coli M15 assessed as dissociation rate constant (Koff) by surface plasmon resonance analysis
T3 sequence (whole entry): T2 sequence (Q8IIL0 whole entry)

[15] = Metabolic stability in human liver S9 fraction assessed as intrinsic clearance at 2 uM measured 90 mins by LC-MS/MS analysis; format: ADME, subcellular; conditions: read-out: CLH
[16] = Toxicity in mouse assessed as latency to fall off the rotating rod by measuring neuromuscular coordination index at 200 mg/kg by rotarod apparatus (reference value: 12.45 +/- 1.48 ); format: organism-based; conditions: in vivo
[17] = system: Plasmodium falciparum; test: Antimalarial activity against trophozoite stage chloroquine-sensitive Plasmodium falciparum 3D7 assessed as growth inhibition incubated with compound for 6 hrs and measured 72 hrs post invasion by SYBR Green dye based analysis; format: functional, organism-based
[18] = Toxicity in mouse assessed as cell death in spleen at 100 to 200 mg/kg measured after 7 days by hematoxylin and eosin staining based analysis; format: organism-based; conditions: in vivo, 168 h, dose 100-200 mg/kg, time 7 day
[19] = Toxicity in mouse assessed as cell necrosis in liver at 100 to 200 mg/kg measured after 7 days by hematoxylin and eosin staining based analysis; format: organism-based; conditions: in vivo, 168 h, dose 100-200 mg/kg, time 7 day
[20] = Toxicity in mouse assessed as cell apoptosis in liver at 100 to 200 mg/kg measured after 7 days by hematoxylin and eosin staining based analysis; format: organism-based; conditions: in vivo, 168 h, dose 100-200 mg/kg, time 7 day
[21] = Toxicity in mouse assessed as cell apoptosis in spleen at 100 to 200 mg/kg measured after 7 days by hematoxylin and eosin staining based analysis; format: organism-based; conditions: in vivo, 168 h, dose 100-200 mg/kg, time 7 day
[22] = system: Plasmodium falciparum; test: Antimalarial activity against synchronized-ring stage chloroquine-sensitive Plasmodium falciparum 3D7 assessed as halt in parasite multiplication by measuring appearance of pyknotic bodies measured after 36 hrs by Giemsa staining based light microscopic analysis; format: functional, organism-based
[23] = Toxicity in mouse assessed as cell necrosis in kidney at 100 to 200 mg/kg measured after 7 days by hematoxylin and eosin staining based analysis; format: organism-based; conditions: in vivo, 168 h, dose 100-200 mg/kg, time 7 day
[24] = system: Plasmodium berghei; test: Antimalarial activity against Plasmodium berghei ANKA infected in BALB/c mouse assessed as reduction in gametocyte development at 50 to 100 mg/kg, ip preadministered with phenylhydrazine for 3 days followed by compound administration and measured after 4 days by Giemsa staining based light microscopic analysis; format: functional, organism-based; conditions: dose 50-100 mg/kg, time 4.0 day

In the case of `O=C(Cn1cc(CN2CCN(c3ccnc4cc(Cl)ccc34)CC2)nn1)Nc1cccc([N+](=O)[O-])c1`, the inhibition [1] is reported as 54.3%, the Time [2] is reported as 56.23 s and the Stability [3] is reported as “Stable”. The K [4] was 0.097 s⁻¹, the IC50 [5] was 31.8 µM and the Stability [6] was “Stable”. For the same compound, the Activity [7] was 14.32 s, the Activity [8] was “Non-Toxic” and the IC50 [9] was 0.96 µM. The Activity [10] was “Active”, the IC50 [11] was 10.2 µM and the Activity [12] was “Active”. For the same compound, the Activity [13] was “Active”, the K [14] was 0.305 s⁻¹ and the microsomal CLint at 2 µM [15] was 13.5 µL/min/mg. For the same compound, the Activity_index [16] was 10.75, the IC50 [17] was 1.96 µM and the Activity [18] was “Non-Toxic”. For the same compound, the Activity [19] was “Non-Toxic”, the Activity [20] was “Non-Toxic” and the Activity [21] was “Non-Toxic”. For the same compound, the Activity [22] was “Active”, the Activity [23] was “Non-Toxic” and the Activity [24] was “Active”.

Source: ChEMBL document CHEMBL5523667, “Blood-stage antimalarial activity, favourable metabolic stability and in vivo toxicity of novel piperazine linked 7-chloroquinoline-triazole conjugates” (Eur J Med Chem, 2024)
